This note sets out measurements from US8535226B2, “Method for measuring in vivo hematotoxicity with an emphasis on radiation exposure assessment” (Litron Laboratories, Ltd., priority 2007, dated 2013).

Experiment [1] deals with lymphocytes. In words: Ex vivo treatment of human blood, TMRE mitochondrial membrane potential of lymphocytes by flow cytometry. The experiment is classed as cell-based. Conditions: whole blood treated ex vivo with 50 μM before staining with SYTO 13 and TMRE. As for the experimental part:
Furthermore, one fraction of blood was treated ex vivo with carbonyl cyanide 3-chlorophenylhydrazone (CCCP), a toxic chemical that is known to disrupt mitochondrial membrane potential.
Blood from a finger prick (approximately 150 μl) was collected into a tube containing 10 μl heparin solution (500 Units/ml; approximately 6% dilution). One 5 μl aliquot of heparinized whole blood was added to a tube with 1 ml Hank's Balance Salt Solution containing SYTO®13 at 5 nM, TMRE at 100 nM, and 20,720 counting beads per ml (beads from Molecular Probes, cat. no. C36950) (i.e., blood diluted another 200-fold). A second fraction of blood was treated with 50 μM CCCP before being stained with SYTO® and TMRE as above. After staining for 30 minutes at room temperature, the samples were analyzed with a FACSCalibur flow cytometer providing 488 nm excitation.
Acquisition was triggered with a FL1 threshold that was set sufficiently high so as to exclude platelets, mature erythrocytes and reticulocytes, thereby restricting acquisition to nucleated cells. By expressing light scatter in linear scale, it was possible to focus on particular subpopulations, for instance lymphocytes that are low in forward and side scatter relative to other nucleated cells (FIG. 4A). […]
For orientation: Flow cytometry measures light scatter and fluorescence of single cells or particles in a stream.

Another experiment concerns reticulocytes. In words: Radioprotectant evaluation using mouse blood: reticulocytes. Conditions: 400 mg/kg ip, 30 minutes prior to 1 Gy gamma rays; blood collected 46±3 hrs post-irradiation. The experiment is classed as in vivo, C57BL/6J mice.
Experiment [2] relates to lymphocytes. In words: Radioprotectant evaluation using mouse blood: lymphocytes. It counts as in vivo, C57BL/6J mice. Conditions: 400 mg/kg ip, 30 minutes prior to 1 Gy gamma rays; blood collected 46±3 hrs post-irradiation.
Procedure: In this experiment, one group of five C57BL/6J mice was sham irradiated, whereas two other groups of five mice were exposed to 1 Gy gamma rays. While one group of irradiated mice was injected with vehicle, the other was injected with the radioprotectant agent amifostine (400 mg/kg injected ip, 30 minutes prior to irradiation). […] 5 μl of whole blood were added to tubes containing 1 ml HBSS with SYTO®13 at 10 nM, TMRE at 100 nM, and 20,720 counting beads per ml (beads from Molecular Probes, cat. no. C36950). After 30 minutes at room temperature, the samples were moved to 4° C. and analyzed with a FACSCalibur flow cytometer providing 488 nm excitation. […] Furthermore, with the incorporation of the TMRE dye, it was possible to enumerate the percentage of lymphocytes that express dysfunctional mitochondrial membranes.

Procedure for reticulocytes: In this experiment, one group of five C57BL/6J mice was sham irradiated, whereas two other groups of five mice were exposed to 1 Gy gamma rays. […] 5 μl of whole blood were added to tubes containing 1 ml HBSS with SYTO®13 at 10 nM, TMRE at 100 nM, and 20,720 counting beads per ml (beads from Molecular Probes, cat. no. C36950). After 30 minutes at room temperature, the samples were moved to 4° C. and analyzed with a FACSCalibur flow cytometer providing 488 nm excitation. In the first round of analysis, a forward scatter threshold was used to trigger data acquisition. With the trigger channel set sufficiently low, platelets as well as all blood cell types were acquired. Similar to thiazole orange, SYTO®13 dye in conjunction with light scatter signals was capable of resolving mature erythrocytes, reticulocytes, nucleated cells, platelets, and reticulated platelets. […] Reticulocytes can thus be quantified as a percentage of all erythrocytes, and reticulated platelets can be quantified as a percentage of all platelets. Furthermore, with the incorporation of the TMRE dye, it was possible to enumerate the percentage of reticulocytes that express dysfunctional mitochondrial membranes.

On to `N#CC(C#N)=NNc1cccc(Cl)c1` [CCCP, carbonyl cyanide 3-chlorophenylhydrazone], for which the “TMRE-associated fluorescence of lymphocytes / incidence of TMRE-negative lymphocytes” value was “increased incidence of events falling into this region” with lymphocytes [1] and “low TMRE-associated fluorescence” with lymphocytes [1] (listed as carbonyl cyanide 3-chlorophenylhydrazone).

Turning to `NCCCNCCSP(=O)(O)O` [amifostine], the “reticulocyte effects of 1 Gy irradiation (decrease of reticulocytes, increase in percentage of reticulocytes with dysfunctional mitochondria)” value in the experiment on reticulocytes was “ameliorated”. In addition, the “protection against decrease of percentage of lymphocytes by 1 Gy irradiation” value in the experiment with lymphocytes [2] is “no appreciable protection”.
